The term IC50 denotes the concentration needed to halve the response being measured. Lower therefore signals inhibition by little substance.

The results in this text go back to patent publication EP3319936B1, “BRIDGE LINKERS FOR CONJUGATION OF CELL-BINDING MOLECULES” (priority 2015, dated 2015).

One assay concerns N87 cell (Ag+). As to the kind of experiment: In vitro cytotoxicity (MTT) assay, N87 cells. The class given is cell-based, human. The protocol:
(§1) The cell lines used in the cytotoxicity assays were HL-60, a human promyelocytic leukemia cell line; NCI-N87, a human gastric carcinoma cell line; and SKOV3, a human ovarian carcinoma cell line. […] For SKOV3 cells, the cells were grown in McCoy's 5A Medium with 10% FBS. To run the assay, the cells (180 µl, 6000 cells) were added to each well in a 96-well plate and incubated for 24 hours at 37°C with 5% CO2. Next, the cells were treated with test compounds (20 µl) at various concentrations in appropriate cell culture medium (total volume, 0.2 mL). The control wells contain cells and the medium but lack the test compounds. The plates were incubated for 120 hours at 37°C with 5% CO2. MTT (5mg/ml) was then added to the wells (20 µl) and the plates were incubated for 1.5hr at 37°C. The medium was carefully removed and DMSO (180 µl) was added afterward. […] The inhibition% was calculated according to the following equation: inhibition% = [1-(assay-blank)/(control-blank)] × 100.

A further assay relates to SK-OV-3 cell (Ag+). Kind of assay: In vitro cytotoxicity (MTT) assay, SK-OV-3 cells. It is filed as cell-based, human. The protocol: as §1
The test system of the next assay is HL60 cell (Ag-). Kind of assay: In vitro cytotoxicity (MTT) assay, HL60 cells. It is filed as cell-based. To be noted: HL-60 human promyelocytic leukemia cell line, 120 hours incubation. The procedure: as §1

Take T-DM1: the IC50 was 0.266 nM in the assay on N87 cell (Ag+) (NCI-N87 human gastric carcinoma cell line, 120 hours incubation, MTT); 0.177 nM in the assay on SK-OV-3 cell (Ag+) (SKOV3 human ovarian carcinoma cell line, 120 hours incubation, MTT); greater than 15 nM with HL60 cell (Ag-). For the same substance, the “Specificity for N87 cell” value in the assay with N87 cell (Ag+) (matches ratio of HL60 (Ag-) IC50 bound to N87 IC50) is recorded as “over 56”. Besides, in the assay on SK-OV-3 cell (Ag+) (matches ratio of HL60 (Ag-) IC50 bound to SK-OV-3 IC50), the “Specificity for SK-OV-3 cell” value is recorded as “over 84”.
